Measured values as given in ChEMBL document CHEMBL4340530, “Peptide-based covalent inhibitors of MALT1 paracaspase” (Bioorg Med Chem Lett, 2019).
Activity calls are given as the source filed them. The rule behind the calls is not given here. Square brackets hold non-standard residues; d marks the D form. Peptide text beside a SMILES is read from it. * marks the point of attachment. NMeR = CN[C@@H](CCCNC(=N)N)C(=O)O; Cbz = O=C(OCc1ccccc1)*; CH2F = FC*

Experiments:
OCI-Ly1 = assay: Antiproliferative activity against human OCI-LY1 cells up to 20 uM; format: functional, cell-based
[1] = target: T1, Mucosa-associated lymphoid tissue lymphoma translocation protein 1 (Homo sapiens, UniProt Q9UDY8); assay: Inhibition of recombinant LZ-fused MALT1 (340 to 789 residues) (unknown origin) using Ac-LRSR-AMC as substrate by fluorescence assay
T1 sequence (Q9UDY8 whole entry): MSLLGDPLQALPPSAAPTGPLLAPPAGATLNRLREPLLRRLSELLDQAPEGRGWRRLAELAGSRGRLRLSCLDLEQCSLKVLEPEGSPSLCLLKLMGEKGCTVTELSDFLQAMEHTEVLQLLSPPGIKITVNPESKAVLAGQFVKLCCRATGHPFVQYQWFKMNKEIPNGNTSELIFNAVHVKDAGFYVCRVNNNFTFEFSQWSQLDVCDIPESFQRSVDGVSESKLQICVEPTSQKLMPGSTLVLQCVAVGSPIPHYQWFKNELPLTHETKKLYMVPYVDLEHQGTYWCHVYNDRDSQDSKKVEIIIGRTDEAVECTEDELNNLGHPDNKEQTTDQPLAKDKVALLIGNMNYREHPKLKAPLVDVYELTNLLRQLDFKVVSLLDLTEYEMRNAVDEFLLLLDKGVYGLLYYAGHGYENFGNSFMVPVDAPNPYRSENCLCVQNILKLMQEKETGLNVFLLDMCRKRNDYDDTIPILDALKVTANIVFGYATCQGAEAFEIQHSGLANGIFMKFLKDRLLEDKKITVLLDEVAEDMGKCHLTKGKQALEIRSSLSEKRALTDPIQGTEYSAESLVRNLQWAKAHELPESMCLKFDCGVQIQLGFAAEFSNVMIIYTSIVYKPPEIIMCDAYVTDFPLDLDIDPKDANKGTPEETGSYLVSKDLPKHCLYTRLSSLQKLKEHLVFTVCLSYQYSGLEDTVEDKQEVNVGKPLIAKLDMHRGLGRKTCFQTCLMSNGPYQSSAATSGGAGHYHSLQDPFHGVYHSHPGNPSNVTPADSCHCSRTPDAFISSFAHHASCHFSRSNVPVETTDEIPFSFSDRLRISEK

OCI-Ly3 = assay: Antiproliferative activity against human OCI-LY3 cells assessed as growth inhibition treated every 48 hrs measured after 96 hrs by CellTiter-Glo assay; format: functional
Trypsin (Homo sapiens) [2] = target: T2, Trypsin (Homo sapiens) (UniProt P07477+P07478+P35030); assay: Inhibition of trypsin (unknown origin) at 100 nM relative to control; format: protein assay
[3] = target: Cathepsin B (Homo sapiens) (UniProt P07858); assay: Inhibition of cathepsin B (unknown origin) at 10 uM relative to control
[4] = target: Prothrombin (Homo sapiens) (UniProt P00734); assay: Inhibition of thrombin (unknown origin) at 1 uM relative to control
[5] = target: Cathepsin S (Homo sapiens) (UniProt P25774); assay: Inhibition of cathepsin S (unknown origin) at 1 uM relative to control
[6] = target: T3, Cathepsin L2 (Homo sapiens) (UniProt O60911); assay: Inhibition of cathepsin V (unknown origin) at 100 nM relative to control
T3 sequence (whole entry): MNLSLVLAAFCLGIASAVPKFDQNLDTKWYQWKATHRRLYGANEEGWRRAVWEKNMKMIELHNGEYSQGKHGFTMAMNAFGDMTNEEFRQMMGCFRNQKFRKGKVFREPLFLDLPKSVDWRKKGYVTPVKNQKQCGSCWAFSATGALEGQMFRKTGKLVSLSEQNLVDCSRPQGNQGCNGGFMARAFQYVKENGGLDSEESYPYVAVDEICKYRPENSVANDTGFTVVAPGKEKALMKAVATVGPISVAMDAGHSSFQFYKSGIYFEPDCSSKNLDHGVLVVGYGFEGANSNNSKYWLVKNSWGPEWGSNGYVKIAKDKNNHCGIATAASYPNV

Trypsin (Homo sapiens) [7] = target: T2, Trypsin (Homo sapiens); assay: Inhibition of trypsin (unknown origin) at 10 uM relative to control; format: protein assay
[8] = target: T4, Cathepsin K (Homo sapiens) (UniProt P43235); assay: Inhibition of cathepsin K (unknown origin) at 10 uM relative to control
T4 sequence (whole entry): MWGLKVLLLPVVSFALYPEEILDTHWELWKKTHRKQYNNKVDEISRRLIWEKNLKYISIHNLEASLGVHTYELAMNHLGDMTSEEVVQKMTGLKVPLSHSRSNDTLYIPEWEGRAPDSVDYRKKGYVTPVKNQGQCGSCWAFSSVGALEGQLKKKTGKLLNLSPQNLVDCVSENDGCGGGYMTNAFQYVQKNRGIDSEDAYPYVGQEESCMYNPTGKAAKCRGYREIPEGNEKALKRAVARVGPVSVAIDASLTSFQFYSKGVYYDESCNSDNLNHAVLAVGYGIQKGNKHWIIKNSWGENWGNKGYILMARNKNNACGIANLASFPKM

[9] = target: Prothrombin (Homo sapiens) (UniProt P00734); assay: Inhibition of thrombin (unknown origin) at 100 nM relative to control
[10] = target: Procathepsin L (Homo sapiens) (UniProt P07711); assay: Inhibition of cathepsin L (unknown origin) at 10 uM relative to control
[11] = target: T3, Cathepsin L2 (Homo sapiens); assay: Inhibition of cathepsin V (unknown origin) at 1 uM relative to control
[12] = target: T4, Cathepsin K (Homo sapiens); assay: Inhibition of cathepsin K (unknown origin) at 100 nM relative to control
[13] = target: Prothrombin (Homo sapiens) (UniProt P00734); assay: Inhibition of thrombin (unknown origin) at 10 uM relative to control
Trypsin (Homo sapiens) [14] = target: T2, Trypsin (Homo sapiens); assay: Inhibition of trypsin (unknown origin) at 1 uM relative to control; format: protein assay
[15] = target: Tryptase beta-2 (Homo sapiens) (UniProt P20231); assay: Inhibition of tryptase b2 (unknown origin) at 1 uM relative to control
[16] = target: T5, Calpain1/2 (Homo sapiens) (UniProt P17655+P07384); assay: Inhibition of calpain (unknown origin) at 10 uM relative to control; format: protein assay
[17] = target: Cathepsin B (Homo sapiens) (UniProt P07858); assay: Inhibition of cathepsin B (unknown origin) at 1 uM relative to control
[18] = target: T4, Cathepsin K (Homo sapiens); assay: Inhibition of cathepsin K (unknown origin) at 1 uM relative to control
[19] = target: Cathepsin S (Homo sapiens) (UniProt P25774); assay: Inhibition of cathepsin S (unknown origin) at 100 nM relative to control
[20] = target: Procathepsin L (Homo sapiens) (UniProt P07711); assay: Inhibition of cathepsin L (unknown origin) at 100 nM relative to control
[21] = target: Tryptase beta-2 (Homo sapiens) (UniProt P20231); assay: Inhibition of tryptase b2 (unknown origin) at 10 uM relative to control
[22] = target: Tryptase beta-2 (Homo sapiens) (UniProt P20231); assay: Inhibition of tryptase b2 (unknown origin) at 100 nM relative to control
[23] = target: Procathepsin L (Homo sapiens) (UniProt P07711); assay: Inhibition of cathepsin L (unknown origin) at 1 uM relative to control
[24] = target: Cathepsin B (Homo sapiens) (UniProt P07858); assay: Inhibition of cathepsin B (unknown origin) at 100 nM relative to control
[25] = target: T3, Cathepsin L2 (Homo sapiens); assay: Inhibition of cathepsin V (unknown origin) at 10 uM relative to control
[26] = target: Cathepsin S (Homo sapiens) (UniProt P25774); assay: Inhibition of cathepsin S (unknown origin) at 10 uM relative to control
[27] = target: T5, Calpain1/2 (Homo sapiens); assay: Inhibition of calpain (unknown origin) at 1 uM relative to control; format: protein assay
[28] = target: T5, Calpain1/2 (Homo sapiens); assay: Inhibition of calpain (unknown origin) at 100 nM relative to control; format: protein assay
[29] = target: T6, Mucosa-associated lymphoid tissue lymphoma translocation protein 1 (Homo sapiens) (UniProt Q9UDY8); assay: Inhibition of MALT1 (unknown origin) expressed in PMA/IO-stimulated human Raji Glosensor cells by reporter gene assay; format: cell-based
T6 sequence (whole entry): T1 sequence (Q9UDY8 whole entry)

Chain of Tryptase beta-2 (Homo sapiens) (P20231 whole entry): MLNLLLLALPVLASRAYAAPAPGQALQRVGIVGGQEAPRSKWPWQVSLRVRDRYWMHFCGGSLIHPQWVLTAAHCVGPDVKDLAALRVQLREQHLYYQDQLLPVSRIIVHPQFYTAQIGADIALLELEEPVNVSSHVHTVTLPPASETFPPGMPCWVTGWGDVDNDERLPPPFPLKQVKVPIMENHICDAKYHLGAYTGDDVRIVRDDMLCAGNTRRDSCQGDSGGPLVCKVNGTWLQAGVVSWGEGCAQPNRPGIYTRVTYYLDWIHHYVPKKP
Chain of Cathepsin S (Homo sapiens) (P25774 115-331 limits assumed): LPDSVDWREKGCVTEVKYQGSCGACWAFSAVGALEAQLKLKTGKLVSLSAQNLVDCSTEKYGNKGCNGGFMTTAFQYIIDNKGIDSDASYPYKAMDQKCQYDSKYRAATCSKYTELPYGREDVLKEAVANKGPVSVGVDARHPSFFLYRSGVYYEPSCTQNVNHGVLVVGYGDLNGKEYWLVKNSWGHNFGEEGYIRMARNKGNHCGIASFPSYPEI
T5 sequence (P07384 whole entry, looked up): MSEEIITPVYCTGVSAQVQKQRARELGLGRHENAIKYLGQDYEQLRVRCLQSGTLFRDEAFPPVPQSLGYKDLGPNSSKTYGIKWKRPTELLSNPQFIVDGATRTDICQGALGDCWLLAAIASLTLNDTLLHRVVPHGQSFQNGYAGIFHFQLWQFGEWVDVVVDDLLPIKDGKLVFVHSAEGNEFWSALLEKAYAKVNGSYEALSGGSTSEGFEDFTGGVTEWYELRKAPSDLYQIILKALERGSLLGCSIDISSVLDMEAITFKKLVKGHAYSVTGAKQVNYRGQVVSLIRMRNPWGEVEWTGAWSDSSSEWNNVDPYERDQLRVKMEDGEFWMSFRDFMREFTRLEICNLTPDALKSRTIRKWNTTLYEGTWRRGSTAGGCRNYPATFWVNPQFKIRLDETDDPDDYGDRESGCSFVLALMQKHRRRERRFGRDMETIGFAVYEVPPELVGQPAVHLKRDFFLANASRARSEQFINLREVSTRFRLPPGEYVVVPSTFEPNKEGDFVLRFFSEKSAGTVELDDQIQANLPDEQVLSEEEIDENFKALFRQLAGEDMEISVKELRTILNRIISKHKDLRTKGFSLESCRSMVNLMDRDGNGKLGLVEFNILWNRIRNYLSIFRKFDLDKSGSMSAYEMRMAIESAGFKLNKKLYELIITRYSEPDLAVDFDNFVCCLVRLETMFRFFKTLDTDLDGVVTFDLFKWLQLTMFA
T5 sequence (P17655 whole entry, looked up): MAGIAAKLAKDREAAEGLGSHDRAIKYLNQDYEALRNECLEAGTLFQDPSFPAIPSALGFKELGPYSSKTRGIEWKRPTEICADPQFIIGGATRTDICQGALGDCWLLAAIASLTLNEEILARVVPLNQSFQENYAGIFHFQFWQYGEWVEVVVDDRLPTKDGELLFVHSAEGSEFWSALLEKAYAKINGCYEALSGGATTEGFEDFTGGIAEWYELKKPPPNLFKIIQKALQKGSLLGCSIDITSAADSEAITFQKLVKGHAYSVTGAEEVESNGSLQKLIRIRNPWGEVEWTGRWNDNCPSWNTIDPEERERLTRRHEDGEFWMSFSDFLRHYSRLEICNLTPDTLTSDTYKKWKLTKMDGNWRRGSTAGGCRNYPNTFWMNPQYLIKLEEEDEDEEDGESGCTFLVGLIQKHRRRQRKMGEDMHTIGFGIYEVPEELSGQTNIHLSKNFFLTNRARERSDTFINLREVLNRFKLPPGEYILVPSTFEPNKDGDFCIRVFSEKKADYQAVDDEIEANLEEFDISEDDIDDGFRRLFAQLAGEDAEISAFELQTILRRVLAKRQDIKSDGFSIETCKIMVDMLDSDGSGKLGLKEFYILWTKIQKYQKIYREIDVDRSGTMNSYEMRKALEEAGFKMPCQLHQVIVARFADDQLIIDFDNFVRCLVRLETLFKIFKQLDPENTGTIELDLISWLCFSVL
Chain of Procathepsin L (Homo sapiens) (P07711 114-333 limits assumed): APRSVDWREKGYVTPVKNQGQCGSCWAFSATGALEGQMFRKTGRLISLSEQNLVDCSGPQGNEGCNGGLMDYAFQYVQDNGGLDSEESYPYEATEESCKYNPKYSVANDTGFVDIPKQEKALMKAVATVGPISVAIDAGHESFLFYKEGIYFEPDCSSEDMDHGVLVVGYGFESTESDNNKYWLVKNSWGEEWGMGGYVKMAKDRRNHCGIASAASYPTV

## CC(C)[C@H](NC(=O)OCc1ccccc1)C(=O)N[C@@H](CCCNC(=N)N)C(=O)N1CCC[C@H]1C(=O)N[C@@H](CCCNC(=N)N)C(=O)CF
OCI-Ly1
  Activity: inactive
[1]
  Ki: 0.14 µM
OCI-Ly3
  GI50: 8.22 µM

## CC(C)[C@H](NC(=O)c1ccc(Br)cc1)C(=O)N[C@@H](CO)C(=O)N[C@@H](CCCNC(=N)N)C(=O)CF
Trypsin (Homo sapiens) [2]
  inhibition: 64%
[3]
  inhibition: 100%
[4]
  inhibition: 1.1%
[5]
  inhibition: 100%
[6]
  inhibition: 29.8%
Trypsin (Homo sapiens) [7]
  inhibition: 94.2%
[8]
  inhibition: 89.7%
[9]
  inhibition: 2.3%
[10]
  inhibition: 49.4%
[11]
  inhibition: 58.4%
[12]
  inhibition: 28.8%
[13]
  inhibition: 41.8%
Trypsin (Homo sapiens) [14]
  inhibition: 92.6%
[15]
  inhibition: 15.3%
[16]
  inhibition: 105%
[17]
  inhibition: 99.5%
[18]
  inhibition: 38.3%
[19]
  inhibition: 99%
[20]
  inhibition: 13%
[21]
  inhibition: 47.5%
[22]
  inhibition: 6.5%
OCI-Ly3
  GI50: 0.15 µM
[23]
  inhibition: 11.2%
[24]
  inhibition: 88.7%
[25]
  inhibition: 94.1%
[26]
  inhibition: 100%
[27]
  inhibition: 99.8%
[28]
  inhibition: 98.5%

## CC(C)[C@H](NC(=O)c1ccc(Br)cc1)C(=O)N1CCCC[C@H]1C(=O)N[C@@H](CCCNC(=N)N)C(=O)CF
Trypsin (Homo sapiens) [2]
  inhibition: 65%
[3]
  inhibition: 98.2%
[4]
  inhibition: 19.4%
[5]
  inhibition: 85.7%
Trypsin (Homo sapiens) [7]
  inhibition: 93.7%
[8]
  inhibition: 98.9%
[9]
  inhibition: 4.6%
[10]
  inhibition: 36.2%
[11]
  inhibition: 32.1%
[12]
  inhibition: 68.7%
[13]
  inhibition: 75.8%
Trypsin (Homo sapiens) [14]
  inhibition: 91%
[15]
  inhibition: 3.4%
[16]
  inhibition: 112%
[17]
  inhibition: 79.7%
[18]
  inhibition: 98.1%
[19]
  inhibition: 82.2%
[21]
  inhibition: 31%
[22]
  inhibition: 1%
OCI-Ly3
  GI50: 0.46 µM
[24]
  inhibition: 10.7%
[25]
  inhibition: 86.3%
[26]
  inhibition: 99.7%
[27]
  inhibition: 76%
[28]
  inhibition: 25.9%

## CC(C)[C@H](NC(=O)c1ccc(Br)cc1)C(=O)N1CCC[C@@H]1C(=O)N[C@@H](CCCNC(=N)N)C(=O)CF
OCI-Ly3
  GI50: > 20 µM
[29]
  IC50: 17.5 µM

## CC(C)[C@H](NC(=O)OCc1ccccc1)C(=O)N1CCC[C@H]1C(=O)N(C)[C@@H](CCCNC(=N)N)C(=O)CF (Cbz-Val-Pro-[NMeR]-CH2F)
OCI-Ly1
  Activity: inactive
[1]
  Ki: > 5 µM

## COc1ccc(C(=O)N[C@H](C(=O)N2CCC[C@H]2C(=O)N[C@@H](CCCNC(=N)N)C(=O)CF)C(C)C)cc1
OCI-Ly3
  GI50: 1.67 µM

## CC(C)[C@H](NC(=O)c1ccc(C(F)(F)F)cc1)C(=O)N1CCC[C@H]1C(=O)N[C@@H](CCCNC(=N)N)C(=O)CF
OCI-Ly3
  GI50: 0.12 µM

## CC(C)[C@H](NC(=O)c1ccccc1Br)C(=O)N1CCC[C@H]1C(=O)N[C@@H](CCCNC(=N)N)C(=O)CF
OCI-Ly3
  GI50: 4.24 µM
